Assay results: paper PMC12775434, “Ultra-large virtual screening unveils potent agonists of the neuromodulatory orphan receptor GPR139” (Nature Communications, 2025)
“And” between values parts separate entries of the source, which are not always exact repeats. Identical values can stand only once.

Legend:
Type in all cases: cell-based
[1] = molecular target: T1, GPR139 (Homo sapiens, UniProt Q6DWJ6); test: Ca2+ mobilization assay, agonist mode, stable GPR139-CHOk1 cell line; settings: for EC50 / Emax: Supplementary Table 2, mean ± SEM; for EC50: read-out: pEC50 Ca2+ (converted); for Emax: normalized to Lundbeck Cmp 1a, read-out: Emax (%) Ca2+
T1 sequence (Q6DWJ6 1-353): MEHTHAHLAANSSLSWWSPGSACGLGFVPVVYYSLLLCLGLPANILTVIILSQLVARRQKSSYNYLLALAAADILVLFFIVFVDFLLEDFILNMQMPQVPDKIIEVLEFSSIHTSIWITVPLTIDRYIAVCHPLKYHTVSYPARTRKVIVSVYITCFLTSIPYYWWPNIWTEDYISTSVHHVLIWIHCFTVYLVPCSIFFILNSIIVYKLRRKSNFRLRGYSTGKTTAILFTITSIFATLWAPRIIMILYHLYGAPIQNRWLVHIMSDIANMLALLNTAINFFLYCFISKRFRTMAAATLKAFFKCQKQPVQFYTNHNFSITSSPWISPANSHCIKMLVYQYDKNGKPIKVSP
In short: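 Agonist activity of compounds is assessed in stably transfected CHO-K1 cells using the calcium dye Fluo-4 at 37 °C in HEPES-buffered HBSS (pH 7.4). Efficacy is expressed relative to the reference agonist Lundbeck Cmp 1a, set as 100%.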

[2] = molecular target: T2, human muscarinic acetylcholine M1 receptor (M1R) (Homo sapiens, UniProt P11229); test: Ca2+ mobilization counter-screen in M1R-CHOk1 cells;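 also: 10 µM test compound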
T2 sequence (P11229 1-460): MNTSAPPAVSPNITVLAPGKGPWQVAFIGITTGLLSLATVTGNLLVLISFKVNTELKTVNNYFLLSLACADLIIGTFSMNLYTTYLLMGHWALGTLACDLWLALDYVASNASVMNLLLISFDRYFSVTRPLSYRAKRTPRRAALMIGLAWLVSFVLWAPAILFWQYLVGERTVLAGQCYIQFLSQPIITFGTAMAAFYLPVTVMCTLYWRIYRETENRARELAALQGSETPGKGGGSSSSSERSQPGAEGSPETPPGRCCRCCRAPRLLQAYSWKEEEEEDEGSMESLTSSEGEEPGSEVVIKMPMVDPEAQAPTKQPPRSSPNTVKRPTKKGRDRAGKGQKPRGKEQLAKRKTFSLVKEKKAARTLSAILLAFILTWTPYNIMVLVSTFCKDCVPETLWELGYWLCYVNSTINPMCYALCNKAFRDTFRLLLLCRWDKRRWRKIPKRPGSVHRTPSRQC
In short: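 Counter-screen used CHO-K1 cells stably carrying human M1R, Fluo-4 AM-loaded (2 µM, 1 h, 37 °C). Calcium signal measured at 485/525 nm after compound addition.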

[3] = molecular target: T1, GPR139; test: Ca2+ mobilization assay, antagonist mode (EC80 800 nM Lundbeck Cmp 1a after 20 min preincubation), GPR139-CHOk1
In short: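 Antagonist mode: 800 nM (EC80) reference agonist Lundbeck Cmp 1a added following 20 min pre-incubation with 10 µM compound. GPR139-CHOk1 cells, Fluo-4 dye, probenecid-containing HEPES buffer pH 7.4; intracellular Ca2+ measured at 37 °C (ex 485, em 525 nm).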

[4] = Agonist mode, individual replicates (Supplementary Figure 4)
[5] = log [Compound] M = -4.5, individual replicate columns
[6] = log [Compound] M = -5.0, individual replicate columns
[7] = log [Compound] M = -5.5, individual replicate columns
[8] = log [Compound] M = -6.0, individual replicate columns
[9] = log [Compound] M = -6.5, individual replicate columns
[10] = log [Compound] M = -7.0, individual replicate columns
[11] = log [Compound] M = -7.5, individual replicate columns
[12] = log [Compound] M = -8.0, individual replicate columns
[13] = log [Compound] M = -8.5, individual replicate columns
[14] = log [Compound] M = -9.0, individual replicate columns
[15] = individual replicates (Supplementary Figure 5)
[16] = individual replicates (Supplementary Figure 4)

Compound	Ca2+ signal (% of Cmp 1a) [1, 4]	EC50 [1]	Emax [1]	Ca2+ signal (% of Cmp 1a) [1, 5]	Ca2+ signal (% of Cmp 1a) [1, 6]	Ca2+ signal (% of Cmp 1a) [1, 7]	Ca2+ signal (% of Cmp 1a) [1, 8]	Ca2+ signal (% of Cmp 1a) [1, 9]	Ca2+ signal (% of Cmp 1a) [1, 10]	Ca2+ signal (% of Cmp 1a) [1, 11]	Ca2+ signal (% of Cmp 1a) [1, 12]	Ca2+ signal (% of Cmp 1a) [1, 13]	Ca2+ signal (% of Cmp 1a) [1, 14]	Ca2+ signal (% of Carbachol) [2, 15]	Ca2+ signal (% of Cmp 1a) [3, 16]	further results
Cc1ncc(-c2nc(CC(=O)NC(C)c3ccccc3)no2)o1 (stereo not shown) [Compound 1.25, CC(C1=CC=CC=C1)NC(CC2=NOC(C3=CN=C(O3)C)=N2)=O]	86 % of Cmp 1a and 76 % of Cmp 1a and 90 % of Cmp 1a	2000 nM	97 ± 3%	107 % of Cmp 1a and 102 % of Cmp 1a and 85 % of Cmp 1a and 96 % of Cmp 1a and 104 % of Cmp 1a	92 % of Cmp 1a (2×) and 95 % of Cmp 1a and 77 % of Cmp 1a and 93 % of Cmp 1a	62 % of Cmp 1a and 74 % of Cmp 1a and 52 % of Cmp 1a and 93 % of Cmp 1a and 64 % of Cmp 1a	43 % of Cmp 1a and 38 % of Cmp 1a and 31 % of Cmp 1a and 47 % of Cmp 1a and 36 % of Cmp 1a	17 % of Cmp 1a and 13 % of Cmp 1a and 4.22 % of Cmp 1a and 19 % of Cmp 1a and 9 % of Cmp 1a	7 % of Cmp 1a and 2.6 % of Cmp 1a and -3 % of Cmp 1a and 12 % of Cmp 1a and 3.24 % of Cmp 1a	10 % of Cmp 1a and 2.43 % of Cmp 1a and 2 % of Cmp 1a and 1.64 % of Cmp 1a and 4 % of Cmp 1a	3 % of Cmp 1a and 6 % of Cmp 1a (2×) and 5 % of Cmp 1a and 4.25 % of Cmp 1a	-0.76 % of Cmp 1a and -1.77 % of Cmp 1a and 0.877 % of Cmp 1a and 5.4 % of Cmp 1a and 0.153 % of Cmp 1a	0.813 % of Cmp 1a and 0.273 % of Cmp 1a and -1 % of Cmp 1a and 1 % of Cmp 1a and 2.54 % of Cmp 1a	5.35 % of Carbachol and 0.226 % of Carbachol and -1.63 % of Carbachol	3 % of Cmp 1a and 15 % of Cmp 1a and 5.33 % of Cmp 1a	
CC(C)c1ccc(-c2nc(CC(=O)NC(C)c3ccccc3)no2)s1 (stereo not shown) [Compound 1.41, CC(C)C1=CC=C(S1)C2=NC(CC(=O)NC(C)C=3C=CC=CC3)=NO2]	66 % of Cmp 1a and 76 % of Cmp 1a and 60 % of Cmp 1a	1580 nM	67 ± 4%	69 % of Cmp 1a and 62 % of Cmp 1a and 57 % of Cmp 1a	70 % of Cmp 1a and 71 % of Cmp 1a and 40 % of Cmp 1a	56 % of Cmp 1a and 47 % of Cmp 1a and 25 % of Cmp 1a	34 % of Cmp 1a and 27 % of Cmp 1a and 22 % of Cmp 1a	15 % of Cmp 1a and 0.333 % of Cmp 1a and 5.33 % of Cmp 1a	13 % of Cmp 1a and -9 % of Cmp 1a and 4.33 % of Cmp 1a	-1.33 % of Cmp 1a and -6.33 % of Cmp 1a and 3 % of Cmp 1a	-4.33 % of Cmp 1a and 0 % of Cmp 1a (2×)	0 % of Cmp 1a and -2.67 % of Cmp 1a and 0.333 % of Cmp 1a	-1.67 % of Cmp 1a and -4.33 % of Cmp 1a and -2.33 % of Cmp 1a	-18 % of Carbachol and 8 % of Carbachol and -8 % of Carbachol	24 % of Cmp 1a and 11 % of Cmp 1a and -0.667 % of Cmp 1a	change in potency with larger substituents on the thiophene ring ([1]; Ca2+ mobilization): three-fold reduction to a complete loss of activity
CCOc1ccc(C(=O)OCC(=O)N[C@H](C)c2ccccc2)cc1 [Compound 14, CCOC=1C=CC(=CC1)C(=O)OCC(=O)N[C@H](C)C=2C=CC=CC2]																Ca2+ signal (% of Cmp 1a) ([1]; 0.1 µM, individual replicates (Supplementary Figure 3)): 1.0 % of Cmp 1a and -0.9 % of Cmp 1a; Ca2+ signal (% of Cmp 1a) ([1]; 1 µM, individual replicates (Supplementary Figure 3)): -7.4 % of Cmp 1a and 2.7 % of Cmp 1a; Ca2+ signal (% of Cmp 1a) ([1]; 10 µM, individual replicates (Supplementary Figure 3)): 15.1 % of Cmp 1a and 12.7 % of Cmp 1a; Ca2+ signal (% of Cmp 1a) ([1]; Agonist mode, individual replicates (Supplementary Figure 1)): 37 % of Cmp 1a and 14 % of Cmp 1a and 31 % of Cmp 1a; Ca2+ signal (% of Carbachol) ([2]; individual replicates (Supplementary Figure 2)): -14 % of Carbachol and 13 % of Carbachol; Ca2+ signal (% of Cmp 1a) ([3]; individual replicates (Supplementary Figure 1)): 75.8591 % of Cmp 1a and 82.1128 % of Cmp 1a and 79.0278 % of Cmp 1a
